The record followed here is patent publication US20120302609A1, “Pyrazolines for the Modulation of PKM2” (Dynamix Pharmaceuticals LTD., priority 2011, published 2012).

For one assay, the target named is T1, PKM2, human recombinant (Homo sapiens, UniProt P14618).
T1 construct: purchased BPS 50295
In words: PKM2 enzymatic activity assay (Kinase-Glo Plus luminescence).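 For Max activity Group: percent increase over no-compound signal after subtracting the no-PKM2 background.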 Type of assay: biochemical. The note with it: for AC50: 0.1 nM PKM2, 0.1 mM ADP, 0.5 mM PEP, 1 hour, room temperature, read-out: AC50 group; for Emax: 1 h, maximum percent activity, luminescence without compound = 0% activity, read-out: Max activity Group. The gist of the method: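 Activation assay: 0.1 nM recombinant human PKM2 with 0.1 mM ADP and 0.5 mM PEP in imidazole buffer pH 7.2, 1 hour at room temperature, in duplicate; ATP produced read by Kinase-Glo Plus luminescence. % activity relative to no-compound and no-enzyme wells; AC50 as half-maximal activation from sigmoidal fit; FBP 0.5 mM positive control.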
Background: Kinase-Glo reads ATP consumption through a luciferase reaction.

Another assay has as its system BT-549 (breast). In words: Cell proliferation assay (CellTiter-Glo Luminescent). Type of assay: cell-based. The conditions noted are these: Homo sapiens, Complete media. (In general: Cellular ATP, detected with luciferase, serves as a proxy for viable cell number.)
The next assay has as its system H1299 (lung). The assay is described as above. Format: cell-based, human. The note with it: 96 hr. As to the method: 1. Cells were grown according to the ATCC conditions. 2. Cell feeding (passaging) was timed such that the cells were in exponential growth phase at the time of the assay.
3. On day 1, H1299 cells were counted. Cell numbers were adjusted to the desired cell concentration in Media 1: RPMI 1640 Invitrogen 11879020 (that contained no glucose or pyruvate) with 10% FBS, and 1 mM D-Glucose (4 μl of 2.5 M D-glucose G8769 was added in preparing 10 ml RPMI media with 1 mM glucose). A 200 μl of H1299 cell suspension was added to appropriate wells in the 96-well plates, and incubated at 37° C. in the CO2 cell incubator under normal growing conditions for overnight. 4. On day 2, a 100 mM stock concentration of test compounds in 100% DMSO was prepared and serially diluted with 100% DMSO to 33.33 mM, 11.11 mM, and 3.7 mM. A 1:1000 dilution was made to each concentration in media 1 (yielding 0.1% final DMSO concentration). The media was aspirated completely from the cell plate. Each 100 μl of the following solutions (100 μM, 33.33 μM, 11.11 μM, and 3.7 μM) was added to the cells. DMSO in a final concentration of 0.1%, and media without DMSO, were added to the cells and used as a negative control. Empty wells around the experimental wells were filled with PBS. The plate was sealed with parafilm to reduce evaporation. 5. The plate was incubated under normal conditions (5% CO2, and 95% air), for 96 hours at 37° C. 6. On day 6 (after 96 hr incubation), the plate was equilibrated to room temperature for approximately 30 minutes. A 100 μl of CellTiter-Glo Reagent was added in each well of the plate. Contents were mixed for 2 minutes on an orbital shaker to induce cell lysis. The plate was incubated at room temperature for 10 minutes to stabilize luminescent signal. Luminescence was recorded with Flexstation 3.
Unless noted otherwise, proliferation of control or compound treated H1299 cells was measured using CellTiter-Glo Luminescent assay following 96 hr incubation of the cells with and without test compounds. The AC50 values, shown in Table 3, were coded according to follows: A: <3 μM; B: 3-10 μM; C: 10-20 μM; or D: >20 μM.

The subject of another assay is BT-474 (Breast). Described as above. Format: cell-based. The conditions noted are these: Homo sapiens, Complete media, 96 hr.
The mark [1] stands for this setting: Homo sapiens, NCI-H1299, 1 mM glucose.

Each structure is given as a SMILES string.

T1 sequence (P14618 whole entry): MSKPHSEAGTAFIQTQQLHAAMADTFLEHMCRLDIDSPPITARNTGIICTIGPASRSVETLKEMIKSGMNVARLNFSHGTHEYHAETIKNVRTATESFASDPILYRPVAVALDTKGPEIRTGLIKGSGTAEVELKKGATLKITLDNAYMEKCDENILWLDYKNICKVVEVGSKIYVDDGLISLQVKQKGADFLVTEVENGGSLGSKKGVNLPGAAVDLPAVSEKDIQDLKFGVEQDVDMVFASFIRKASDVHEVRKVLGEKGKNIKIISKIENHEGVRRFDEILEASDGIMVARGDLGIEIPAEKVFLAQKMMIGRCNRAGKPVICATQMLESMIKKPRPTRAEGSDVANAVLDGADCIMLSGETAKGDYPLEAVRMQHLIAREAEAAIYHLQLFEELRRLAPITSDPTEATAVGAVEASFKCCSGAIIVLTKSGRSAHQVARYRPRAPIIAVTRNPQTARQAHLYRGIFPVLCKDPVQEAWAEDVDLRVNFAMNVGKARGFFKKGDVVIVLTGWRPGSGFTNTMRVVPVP

One may read the AC50 as the midpoint of the concentration-response curve, whichever way the signal moves. For `CCS(=O)(=O)Nc1ccc(C2=NN(C(C)=O)C(c3ccc(OC)cc3)C2)cc1` (racemic) [Compound 1A, N-(4-(1-acetyl-5-(4-methoxyphenyl)-4,5-dihydro-1H-pyrazol-3-yl)phenyl)ethanesulfonamide], the AC50 is at most 1 µM on PKM2, human recombinant; above 20 µM in the assay on BT-549 (breast) (Assay duration: 72 hours, Readout: CellTiter Glo); 10 to 20 µM in the assay on H1299 (lung) (setting [1]). In addition, the Emax at PKM2, human recombinant was in the range of 130 to 200%.

With `COc1ccc([C@@H]2CC(c3ccc(NS(=O)(=O)c4ccc(F)cc4)cc3)=NN2C(C)=O)cc1` [Compound 13A, (S)—N-(4-(1-acetyl-5-(4-methoxyphenyl)-4,5-dihydro-1H-pyrazol-3-yl)phenyl)-4-fluorobenzenesulfonamide], the AC50 is at most 1 µM on PKM2, human recombinant; 10 to 20 µM in the assay with BT-474 (Breast); 10 to 20 µM in the assay with BT-549 (breast) (96 hr, CellTiter-Glo); 10 to 20 µM in the assay with H1299 (lung) (5 mM glucose); 10 to 20 µM in the assay on H1299 (lung) (Complete media); 10 to 20 µM in the assay on H1299 (lung) (setting [1]). Besides, the Emax on PKM2, human recombinant was 130 to 200%.
